Measurements as given in ChEMBL document CHEMBL3639362, “Pyrrolopyrazoles, potent kinase inhibitors” (2013).

Molecular target: Serine/threonine-protein kinase PAK 4 (Homo sapiens, UniProt O96013)
Test: Enzymatic Assay: The enzymatic activity of PAK4 KD was measured by its ability to catalyzed the transfer of a phosphate residue from a nucleoside triphosphate to an amino acid side chain of a commercially available peptide (amino acid sequence EVPRRKSLVGTPYWM).

Chain of Serine/threonine-protein kinase PAK 4 (O96013 whole entry): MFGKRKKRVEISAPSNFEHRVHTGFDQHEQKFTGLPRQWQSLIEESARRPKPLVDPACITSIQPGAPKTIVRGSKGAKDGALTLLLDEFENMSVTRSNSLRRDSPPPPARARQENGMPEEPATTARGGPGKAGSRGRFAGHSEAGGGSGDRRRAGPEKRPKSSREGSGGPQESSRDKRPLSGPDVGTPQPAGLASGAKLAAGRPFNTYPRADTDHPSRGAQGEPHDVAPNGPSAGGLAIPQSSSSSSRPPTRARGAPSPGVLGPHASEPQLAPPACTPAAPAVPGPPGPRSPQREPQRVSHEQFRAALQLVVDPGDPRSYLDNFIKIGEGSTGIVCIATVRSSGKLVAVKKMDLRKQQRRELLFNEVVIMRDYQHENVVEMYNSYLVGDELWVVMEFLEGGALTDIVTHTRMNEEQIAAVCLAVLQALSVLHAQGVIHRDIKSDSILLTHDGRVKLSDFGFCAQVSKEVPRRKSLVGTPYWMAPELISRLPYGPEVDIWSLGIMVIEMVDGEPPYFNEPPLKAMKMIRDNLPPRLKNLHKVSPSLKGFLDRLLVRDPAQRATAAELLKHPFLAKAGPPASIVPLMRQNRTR

`CC1(C)c2n[nH]c(Nc3nc(Cl)nc(N4CCC[C@H]4C(N)=O)n3)c2CN1C(=O)NC1C[C@@H]1c1ccccc1` (stereo partly specified) was tested. Which EC50 did it give?
The EC50 was greater than 4 µM.
